The text below walks through data of patent publication US11299501B2 (BRISTOL-MYERS SQUIBB COMPANY, priority 2017, dated 2022).

Assay type in all cases: cell-based
For one test, the target named is T1, human TLR8 (Homo sapiens, UniProt Q9NR97).
T1 construct: host or cells: HEK-Blue cells
T1 sequence (Q9NR97 27-1041): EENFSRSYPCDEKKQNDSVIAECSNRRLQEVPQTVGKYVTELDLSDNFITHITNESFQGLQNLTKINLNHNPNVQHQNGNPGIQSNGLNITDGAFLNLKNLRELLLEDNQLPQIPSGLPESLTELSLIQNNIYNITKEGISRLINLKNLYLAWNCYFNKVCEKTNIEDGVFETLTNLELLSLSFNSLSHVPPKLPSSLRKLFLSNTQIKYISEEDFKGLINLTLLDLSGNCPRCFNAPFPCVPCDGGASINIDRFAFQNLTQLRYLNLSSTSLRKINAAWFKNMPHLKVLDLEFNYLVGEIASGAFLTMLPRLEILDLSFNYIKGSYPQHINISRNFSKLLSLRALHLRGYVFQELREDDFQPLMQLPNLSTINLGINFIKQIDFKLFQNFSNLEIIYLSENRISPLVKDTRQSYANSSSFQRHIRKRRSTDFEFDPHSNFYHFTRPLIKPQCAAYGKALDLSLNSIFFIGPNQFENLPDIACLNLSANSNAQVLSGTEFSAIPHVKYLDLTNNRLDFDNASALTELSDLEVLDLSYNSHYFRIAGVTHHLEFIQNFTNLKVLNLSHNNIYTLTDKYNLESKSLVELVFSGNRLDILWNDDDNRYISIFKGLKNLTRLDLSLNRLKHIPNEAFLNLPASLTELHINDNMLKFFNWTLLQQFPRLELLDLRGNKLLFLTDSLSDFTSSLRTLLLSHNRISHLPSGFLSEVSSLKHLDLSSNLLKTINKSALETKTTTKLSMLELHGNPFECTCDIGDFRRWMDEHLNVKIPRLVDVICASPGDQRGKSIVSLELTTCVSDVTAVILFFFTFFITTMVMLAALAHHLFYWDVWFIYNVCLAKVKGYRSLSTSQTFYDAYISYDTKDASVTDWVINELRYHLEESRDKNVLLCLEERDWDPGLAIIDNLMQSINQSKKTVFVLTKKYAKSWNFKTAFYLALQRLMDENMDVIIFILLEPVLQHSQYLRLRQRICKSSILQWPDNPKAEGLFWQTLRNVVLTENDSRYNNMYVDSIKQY
The test is described as follows: TLR8 inhibition reporter assay (HEK-Blue SEAP). The settings on record: cells overexpressing human TLR8, SEAP reporter, stimulated with R848 15.9 μM, 22 hour incubation. An outline of the steps:
(§1)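 HEK-Blue cells expressing human TLR7, TLR8 or TLR9 with NF-κB/AP-1-driven SEAP reporter pre-treated 30 min at room temperature with compound (0.05 nM–50 μM), then stimulated with gardiquimod 7.5 μM (TLR7), R848 15.9 μM (TLR8) or ODN2006 5 nM (TLR9). SEAP read after 22 h at 37 °C; % inhibition relative to agonist+DMSO and reference-inhibitor wells.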
(In a reporter assay the amount or activity of a reporter protein is the signal.)

A further test deals with T2, human TLR7 (Homo sapiens, UniProt Q9NYK1).
T2 construct: host or cells: HEK-Blue cells
T2 sequence (Q9NYK1 27-1049): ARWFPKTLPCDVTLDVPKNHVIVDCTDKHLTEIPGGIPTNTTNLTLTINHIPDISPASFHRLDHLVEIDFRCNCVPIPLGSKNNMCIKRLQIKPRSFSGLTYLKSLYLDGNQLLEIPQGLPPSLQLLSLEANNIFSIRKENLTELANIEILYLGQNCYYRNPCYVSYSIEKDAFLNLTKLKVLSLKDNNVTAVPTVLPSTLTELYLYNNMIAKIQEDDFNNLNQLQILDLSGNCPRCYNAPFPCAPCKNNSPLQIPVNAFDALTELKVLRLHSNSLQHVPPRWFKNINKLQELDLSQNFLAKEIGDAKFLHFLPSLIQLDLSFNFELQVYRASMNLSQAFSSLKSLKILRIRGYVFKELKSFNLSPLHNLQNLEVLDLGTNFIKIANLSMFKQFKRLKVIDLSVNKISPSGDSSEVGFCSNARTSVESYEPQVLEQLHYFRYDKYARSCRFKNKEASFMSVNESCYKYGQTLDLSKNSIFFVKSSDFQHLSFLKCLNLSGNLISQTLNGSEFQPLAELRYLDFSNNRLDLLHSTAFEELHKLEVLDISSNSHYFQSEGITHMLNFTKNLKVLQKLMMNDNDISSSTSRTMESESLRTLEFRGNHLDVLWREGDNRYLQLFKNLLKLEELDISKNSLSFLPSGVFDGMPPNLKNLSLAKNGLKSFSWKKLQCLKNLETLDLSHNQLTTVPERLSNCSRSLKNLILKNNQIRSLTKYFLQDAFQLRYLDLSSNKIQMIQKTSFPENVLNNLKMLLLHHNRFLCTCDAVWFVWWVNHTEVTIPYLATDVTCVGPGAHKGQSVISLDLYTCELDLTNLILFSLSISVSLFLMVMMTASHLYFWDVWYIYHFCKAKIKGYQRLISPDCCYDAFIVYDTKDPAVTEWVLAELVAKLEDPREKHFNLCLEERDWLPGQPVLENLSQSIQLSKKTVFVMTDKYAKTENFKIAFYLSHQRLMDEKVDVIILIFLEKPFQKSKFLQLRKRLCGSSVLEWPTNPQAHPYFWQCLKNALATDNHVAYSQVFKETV
As to the kind of experiment: TLR7 inhibition reporter assay (HEK-Blue SEAP). To be noted: cells overexpressing human TLR7, SEAP reporter, stimulated with gardiquimod 7.5 μM, 22 hour incubation. Summed up: as §1

The target in another test is T3, human TLR9 (Homo sapiens, UniProt Q9NR96).
T3 construct: host or cells: HEK-Blue cells
T3 sequence (Q9NR96 26-1032): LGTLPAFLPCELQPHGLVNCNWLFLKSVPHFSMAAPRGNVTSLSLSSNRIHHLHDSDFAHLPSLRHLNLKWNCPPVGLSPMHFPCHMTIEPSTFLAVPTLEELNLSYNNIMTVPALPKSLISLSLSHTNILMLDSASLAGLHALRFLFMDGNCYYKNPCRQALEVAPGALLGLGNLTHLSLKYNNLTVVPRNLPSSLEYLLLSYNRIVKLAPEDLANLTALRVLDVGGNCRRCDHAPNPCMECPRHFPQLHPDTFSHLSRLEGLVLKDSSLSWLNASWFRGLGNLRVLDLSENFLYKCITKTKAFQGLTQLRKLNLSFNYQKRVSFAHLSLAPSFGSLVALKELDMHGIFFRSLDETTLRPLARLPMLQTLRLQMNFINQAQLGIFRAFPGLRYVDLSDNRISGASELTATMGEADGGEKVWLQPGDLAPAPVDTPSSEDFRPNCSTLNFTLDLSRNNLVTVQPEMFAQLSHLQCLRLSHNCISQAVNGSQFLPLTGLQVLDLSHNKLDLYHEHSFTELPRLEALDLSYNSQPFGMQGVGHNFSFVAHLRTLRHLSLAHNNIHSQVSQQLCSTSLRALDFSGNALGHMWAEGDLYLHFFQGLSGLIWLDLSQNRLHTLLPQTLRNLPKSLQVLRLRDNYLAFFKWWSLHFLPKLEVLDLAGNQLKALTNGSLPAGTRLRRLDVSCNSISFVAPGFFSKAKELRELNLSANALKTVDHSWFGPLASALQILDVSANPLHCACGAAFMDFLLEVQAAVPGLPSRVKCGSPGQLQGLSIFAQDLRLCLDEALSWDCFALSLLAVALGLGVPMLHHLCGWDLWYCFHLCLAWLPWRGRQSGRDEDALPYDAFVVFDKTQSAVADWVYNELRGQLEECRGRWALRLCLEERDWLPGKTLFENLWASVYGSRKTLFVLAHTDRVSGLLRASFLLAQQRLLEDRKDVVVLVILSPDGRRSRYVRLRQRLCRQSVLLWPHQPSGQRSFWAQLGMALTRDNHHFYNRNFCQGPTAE
As to the kind of experiment: TLR9 inhibition reporter assay (HEK-Blue SEAP). To be noted: cells overexpressing human TLR9, SEAP reporter, stimulated with ODN2006 5 nM, 22 hour incubation. An outline of the steps: as §1

As usually defined, the IC50 is the midpoint of a concentration-inhibition curve. Low readings indicate greater potency in that assay, high ones weaker potency in that assay. For the compound `Cc1cc(-c2[nH]c3cnc(C4CCN(C)CC4)nc3c2C(C)C)cn(C)c1=O` [Example 34, 5-(7-isopropyl-2-(1-methylpiperidin-4-yl)-5H-pyrrolo[3,2-d]pyrimidin-6-yl)-1,3-dimethylpyridin-2(1H)-one], the figures for the half-inhibitory concentration (IC50) at human TLR8, against human TLR7 and against human TLR9 were less than 100 nM, less than 100 nM and 1 to 50 µM, respectively.

On to `CNC(=O)CN1CCC(c2ncc3[nH]c(-c4cc(OC)c5ncnn5c4)c(C(C)C)c3n2)CC1` [Example 35, 2-(4-(7-isopropyl-6-(8-methoxy-[1,2,4]triazolo[1,5-a]pyridin-6-yl)-5H-pyrrolo[3,2-d]pyritnidin-2-yl)piperidin-1-yl)-N-methylacetamide], for which the half-maximal inhibitory concentration (IC50) at human TLR8 is less than 100 nM; at human TLR7 it was less than 100 nM; at human TLR9 it was more than 50 µM.

With `CCc1c(-c2ccc(OC)c(OC)c2)[nH]c2cnc(-c3nnc(C[C@H]4CCCCN4)o3)nc12` [Example 36, (R)-2-(6-(3,4-dimethoxyphenyl)-7-ethyl-5H-pyrrolo[3,2-d]pyrhnidin-2-yl)-5-(piperidin-2-ylmethyl)-1,3,4-oxadiazole], the half-inhibitory concentration (IC50) lay within 100 to 1000 nM at human TLR8, 1000 to 50000 nM against human TLR7 and 1 to 50 µM at human TLR9.

As for `CCc1c(-c2ccc(OC)c(OC)c2)[nH]c2cnc(-c3nnc(CCCN(C)C)o3)nc12` [Example 37, 3-(5-(6-(3,4-dimethoxyphenyl)-7-ethyl-5H-pyrrolo[3,2-d]pyrimidin-2-yl)-1,3,4-oxadiazol-2-yl)-N,N-dimethylpropan-1-amine], the IC50 at human TLR8 was in the range of 100 to 1000 nM; at human TLR7, 1000 to 50000 nM; against human TLR9 it was 1 to 50 µM.

`CCc1c(-c2ccc(OC)c(OC)c2)[nH]c2cnc(-c3nnc(CCNC)o3)nc12` [Example 38, 2-(5-(6-(3,4-dimethoxyphenyl)-7-ethyl-5H-pyrrolo[3,2-d]pyrimidin-2-yl)-1,3,4-oxadiazol-2-yl)-N-methylethan-1-amine]: the half-inhibitory concentration (IC50) against human TLR8 lay within 100 to 1000 nM; on human TLR7 it was 1000 to 50000 nM; on human TLR9, 1 to 50 µM.

With `CCc1c(-c2ccc(OC)c(OC)c2)[nH]c2cnc(-c3nnc(C(C)(C)N)o3)nc12` [Example 39, 2-(5-(6-(3,4-dimethoxyphenyl)-7-ethyl-5H-pyrrolo[3,2-d]pyrimidin-2-yl)-1,3,4-oxadiazol-2-yl)propan-2-amine], the IC50 at human TLR8 is 1000 to 50000 nM; against human TLR7, 1000 to 50000 nM; at human TLR9 it was more than 50 µM.

Regarding `CCc1c(-c2ccc(OC)c(OC)c2)[nH]c2cnc(-c3nnc([C@H]4CCCNC4)o3)nc12` [Example 40, (S)-2-(6-(3,4-dimethoxyphenyl)-7-ethyl-5H-pyrrolo[3,2-d]pyrimidin-2-yl)-5-(piperidin-3-yl)-1,3,4-oxadiazole], the IC50 fell in the range of 100 to 1000 nM on human TLR8, 100 to 1000 nM on human TLR7 and 0.1 to 1 µM against human TLR9.

For the compound `CCc1c(-c2ccc(OC)c(OC)c2)[nH]c2cnc(-c3nnc([C@@H]4CCNC4)o3)nc12` [Example 41, (R)-2-(6-(3,4-dimethoxyphenyl)-7-ethyl-5H-pyrrolo[3,2-d]pyrimidin-2-yl)-5-(pyrrolidin-3-yl)-1,3,4-oxadiazole], the IC50 is 1000 to 50000 nM against human TLR8, 1000 to 50000 nM against human TLR7 and 1 to 50 µM at human TLR9.

Take `CCc1c(-c2ccc(OC)c(OC)c2)[nH]c2cnc(-c3nnc(CNC)o3)nc12` [Example 42, 1-(5-(6-(3,4-dimethoxyphenyl)-7-ethyl-5H-pyrrolo[3,2-d]pyrimidin-2-yl)-1,3,4-oxadiazol-2-yl)-N-methylmethanamine]: the 50% inhibitory concentration (IC50) at human TLR8 lay within 100 to 1000 nM; against human TLR7, 1000 to 50000 nM; on human TLR9, 1 to 50 µM.

For `CCc1c(-c2ccc(OC)c(OC)c2)[nH]c2cnc(-c3nnc([C@@H]4CCCNC4)o3)nc12` [Example 43, (R)-2-(6-(3,4-dimethoxyphenyl)-7-ethyl-5H-pyrrolo[3,2-d]pyrimidin-2-yl)-5-(piperidin-3-yl)-1,3,4-oxadiazole], the figures for the IC50 on human TLR8, against human TLR7 and against human TLR9 were 100 to 1000 nM, 1000 to 50000 nM and 1 to 50 µM, respectively.

With `CCc1c(-c2ccc(OC)c(OC)c2)[nH]c2cnc(-c3nnc([C@H]4CCNC4)o3)nc12` [Example 44, (S)-2-(6-(3,4-dimethoxyphenyl)-7-ethyl-5H-pyrrolo[3,2-d]pyrimidin-2-yl)-5-(pyrrolidin-3-yl)-1,3,4-oxadiazole], the IC50 was 1000 to 50000 nM on human TLR8, 1000 to 50000 nM on human TLR7 and 1 to 50 µM at human TLR9.

As for `CCc1c(-c2ccc(OC)c(OC)c2)[nH]c2cnc(-c3nnc(C[C@@H]4CCCN4)o3)nc12` [Example 45, (S)-2-(6-(3,4-dimethoxyphenyl)-7-ethyl-5H-pyrroIo[3,2-d]pyrimidin-2-yl)-5-(pyrrolidin-2-ylmethyl)-1,3,4-oxadiazole], the concentration for half-maximal inhibition (IC50) on human TLR8 lay within 1000 to 50000 nM; at human TLR7, 1000 to 50000 nM; against human TLR9, 1 to 50 µM.
